# Measured values from US10793564B2, “Amino acid compounds and methods of use” (Pliant Therapeutics, Inc., priority 2018, dated 2020).
# Molecular target: recombinant human integrin αVβ6 (Homo sapiens (Human), UniProt P06756+P18564)
# Experiment: Solid phase integrin αVβ6 binding assay
# Details: inhibition of recombinant TGFβ1 LAP binding to coated integrin, IC50 presented in four ranges, read-out: αvβ6 Inhibition IC50 (nM) - range
# Method: (§1) Microplates were coated with recombinant human integrin αVβ6 (2 μg/mL) in PBS (100 μL/well 25° C., overnight). The coating solution was removed, washed with wash buffer (0.05% Tween 20; 0.5 mM MnCl2; in 1×TBS). The plate was blocked with 200 μL/well of Block Buffer (1% BSA; 5% sucrose; 0.5 mM MnCl2; in 1×TBS) at 37° C. for 2 h. Dilutions of testing compounds and recombinant TGFβ1 LAP (0.67 μg/mL) in binding buffer (0.05% BSA; 2.5% sucrose; 0.5 mM MnCl2; in 1×TBS) were added. The plate was incubated for 2 hours at 25° C., washed, and incubated for 1 hour with Biotin-Anti-hLAP. Bound antibody was detected by peroxidase-conjugated streptavidin. The IC50 values for testing compounds were calculated by a four-parameter logistic regression.
# The compounds tested were compound samples prepared according to procedures described in the Synthetic Examples section, with the stereochemical purity as indicated in the Examples.
# as §1, with “A third series of exemplary compounds was selected for testing in the solid phase integrin αVβ6 binding assay. The compounds tested were compound samples prepared according to procedures described in the Synthetic Examples section, with the stereochemical purity as indicated in the Examples. As in Example B1, microplates were” for “Microplates were”, “(0.67 g/mL)” for “(0.67 μg/mL)”
# Sequence of recombinant human integrin αVβ6 (P06756 31-992): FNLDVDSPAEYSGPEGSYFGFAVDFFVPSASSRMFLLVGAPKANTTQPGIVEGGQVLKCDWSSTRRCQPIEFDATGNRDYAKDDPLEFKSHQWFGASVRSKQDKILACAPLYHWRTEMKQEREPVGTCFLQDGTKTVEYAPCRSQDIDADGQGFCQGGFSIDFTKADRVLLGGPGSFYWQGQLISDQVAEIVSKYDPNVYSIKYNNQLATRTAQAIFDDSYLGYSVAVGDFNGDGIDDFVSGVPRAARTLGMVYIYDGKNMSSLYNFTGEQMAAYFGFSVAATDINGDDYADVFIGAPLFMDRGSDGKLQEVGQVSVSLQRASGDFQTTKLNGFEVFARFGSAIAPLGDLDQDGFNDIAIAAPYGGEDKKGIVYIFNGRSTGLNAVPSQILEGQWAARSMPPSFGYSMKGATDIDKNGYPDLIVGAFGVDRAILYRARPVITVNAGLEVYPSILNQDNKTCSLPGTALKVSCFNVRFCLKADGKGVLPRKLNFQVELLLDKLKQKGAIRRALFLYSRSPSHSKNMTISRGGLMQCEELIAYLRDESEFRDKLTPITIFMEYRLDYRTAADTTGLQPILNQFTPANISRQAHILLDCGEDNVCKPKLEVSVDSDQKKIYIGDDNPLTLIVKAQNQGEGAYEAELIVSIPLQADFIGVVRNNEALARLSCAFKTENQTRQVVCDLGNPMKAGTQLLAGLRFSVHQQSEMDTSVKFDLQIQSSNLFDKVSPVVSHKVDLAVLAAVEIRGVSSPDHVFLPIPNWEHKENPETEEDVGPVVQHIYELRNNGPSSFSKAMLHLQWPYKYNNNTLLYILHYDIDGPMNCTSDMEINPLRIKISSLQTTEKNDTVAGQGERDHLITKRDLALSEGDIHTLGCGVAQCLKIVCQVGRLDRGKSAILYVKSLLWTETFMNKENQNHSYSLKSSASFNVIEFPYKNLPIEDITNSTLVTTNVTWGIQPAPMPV
# Sequence of recombinant human integrin αVβ6 (P18564 22-707): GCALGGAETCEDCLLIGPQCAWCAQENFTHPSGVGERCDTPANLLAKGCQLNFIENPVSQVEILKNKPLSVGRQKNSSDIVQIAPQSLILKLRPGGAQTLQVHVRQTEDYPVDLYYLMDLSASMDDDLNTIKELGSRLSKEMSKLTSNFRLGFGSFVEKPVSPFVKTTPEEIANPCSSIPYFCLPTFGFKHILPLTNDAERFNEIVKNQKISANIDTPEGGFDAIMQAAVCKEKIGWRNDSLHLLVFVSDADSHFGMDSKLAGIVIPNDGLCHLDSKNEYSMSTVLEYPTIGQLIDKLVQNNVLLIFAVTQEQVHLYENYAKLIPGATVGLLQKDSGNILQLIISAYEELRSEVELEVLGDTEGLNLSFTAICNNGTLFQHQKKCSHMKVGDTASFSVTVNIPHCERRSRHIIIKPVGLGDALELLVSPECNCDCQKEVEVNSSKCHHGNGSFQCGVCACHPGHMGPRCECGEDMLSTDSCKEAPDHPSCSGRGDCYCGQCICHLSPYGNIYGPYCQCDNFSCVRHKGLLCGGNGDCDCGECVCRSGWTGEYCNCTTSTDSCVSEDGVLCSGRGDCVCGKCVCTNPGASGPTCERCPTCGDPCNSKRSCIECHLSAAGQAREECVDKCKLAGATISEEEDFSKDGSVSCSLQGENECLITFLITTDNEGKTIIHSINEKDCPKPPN
row,SMILES,IC50
1,"COCCN(CCCCc1ccc2c(n1)NCCC2)CC[C@H](Nc1nccc2ccccc12)C(=O)O [Compound 34, (S)-2-(isoquinolin-1-ylamino)-4-((2-methoxyethyl) (4-(5,6,7,8-tetrahydro-1,8-naphthyridin-2-yl)butyl)amino) butanoic Acid]",> 1000 nM
2,"COCCN(CCCCc1ccc2c(n1)NCCC2)CC[C@H](Nc1ccnc2ccccc12)C(=O)O [Compound 36, (S)-4-((2-methoxyethyl) (4-(5,6,7,8-tetrahydro-1,8-naphthyridin-2-yl)butyl)amino)-2-(quinolin-4-ylamino) butanoic Acid]",> 1000 nM
3,"COCCN(CCCCc1ccc2c(n1)NCCC2)CC[C@H](Nc1ncnc2cc(Cl)ccc12)C(=O)O [Compound 37, (S)-2-((7-chloroquinazolin-4-yl)amino)-4-((2-methoxyethyl) (4-(5,6,7,8-tetrahydro-1,8-naphthyridin-2-yl)butyl)amino) butanoic Acid]",50 to 250 nM
4,"Cc1nc(N[C@@H](CCN(CCCCc2ccc3c(n2)NCCC3)CCOc2ccc(F)cc2)C(=O)O)c2ccc(F)cc2n1 [Compound 40, (S)-2-((7-fluoro-2-methylquinazolin-4-yl)amino)-4-((2-(4-fluorophenoxy)ethyl) (4-(5,6,7,8-tetrahydro-1,8-naphthyridin-2-yl)butyl)amino) butanoic Acid]",< 50 nM
5,"COc1ccc2c(N[C@@H](CCN(CCCF)CCCCc3ccc4c(n3)NCCC4)C(=O)O)ncnc2c1 [Compound 41, (S)-4-((3-fluoropropyl) (4-(5,6,7,8-tetrahydro-1,8-naphthyridin-2-yl)butyl)amino)-2-((7-methoxyquinazolin-4-yl)amino) butanoic Acid]",< 50 nM
6,"Cc1nc(N[C@@H](CCN(CCCCc2ccc3c(n2)NCCC3)CCOC2CC2(F)F)C(=O)O)c2ccc(F)cc2n1 (stereo partly drawn) [Compound 42, (2S)-4-((2-(2,2-difluorocyclopropoxy)ethyl) (4-(5,6,7,8-tetrahydro-1,8-naphthyridin-2-yl)butyl)amino)-2-((7-fluoro-2-methylquinazolin-4-yl)amino) butanoic Acid]",< 50 nM
7,"COc1cccc2c(N[C@@H](CCN(CCCF)CCCCc3ccc4c(n3)NCCC4)C(=O)O)ncnc12 [Compound 43, (S)-4-((3-fluoropropyl) (4-(5,6,7,8-tetrahydro-1,8-naphthyridin-2-yl)butyl)amino)-2-((8-methoxyquinazolin-4-yl)amino) butanoic Acid]",< 50 nM
8,"COCCN(CCCCc1ccc2c(n1)NCCC2)CC[C@H](Nc1cc(-n2cccn2)ncn1)C(=O)O [Compound 44, (S)-2-((6-(1H-pyrazol-1-yl)pyrimidin-4-yl)amino)-4-((2-methoxyethyl) (4-(5,6,7,8-tetrahydro-1,8-naphthyridin-2-yl)butyl)amino) butanoic Acid]",< 50 nM
9,"Cc1cc(C)n(CCN(CCCCc2ccc3c(n2)NCCC3)CC[C@H](Nc2ncnc3ccccc23)C(=O)O)n1 [Compound 45, (S)-4-((2-(3,5-dimethyl-1H-pyrazol-1-yl)ethyl) (4-(5,6,7,8-tetrahydro-1,8-naphthyridin-2-yl)butyl)amino)-2-(quinazolin-4-ylamino) butanoic Acid]",< 50 nM
10,"COC[C@@H](F)CN(CCCCc1ccc2c(n1)NCCC2)CC[C@H](Nc1nc(C)nc2ccccc12)C(=O)O [Compound 46, (S)-4-(((S)-2-fluoro-3-methoxypropyl) (4-(5,6,7,8-tetrahydro-1,8-naphthyridin-2-yl)butyl)amino)-2-((2-methylquinazolin-4-yl)amino) butanoic Acid]",< 50 nM
11,"O=C(O)[C@H](CCN(CCCCc1ccc2c(n1)NCCC2)CCOc1cc(F)cc(F)c1)Nc1ncnc2ccccc12 [Compound 47, (S)-4-((2-(3,5-difluorophenoxy)ethyl) (4-(5,6,7,8-tetrahydro-1,8-naphthyridin-2-yl)butyl)amino)-2-(quinazolin-4-ylamino) butanoic Acid]",< 50 nM
12,"O=C(O)[C@H](CCN(CCCCc1ccc2c(n1)NCCC2)CCOc1ccccn1)Nc1ncnc2c(Cl)cccc12 [Compound 48, (S)-2-((8-chloroquinazolin-4-yl)amino)-4-((2-(pyridin-2-yloxy)ethyl) (4-(5,6,7,8-tetrahydro-1,8-naphthyridin-2-yl)butyl)amino) butanoic Acid]",< 50 nM
13,"O=C(O)[C@H](CCN(CCCCc1ccc2c(n1)NCCC2)CCOc1ccccn1)Nc1ncnc2ccccc12 [Compound 49, (S)-4-((2-(pyridin-2-yloxy)ethyl) (4-(5,6,7,8-tetrahydro-1,8-naphthyridin-2-yl)butyl)amino)-2-(quinazolin-4-ylamino) butanoic Acid]",< 50 nM
14,"O=C(O)[C@H](CCN(CCCCc1ccc2c(n1)NCCC2)CCOCC(F)F)Nc1ncnc2ccccc12 [Compound 50, (S)-4-((2-(2,2-difluoroethoxy)ethyl) (4-(5,6,7,8-tetrahydro-1,8-naphthyridin-2-yl)butyl)amino)-2-(quinazolin-4-ylamino) butanoic Acid]",< 50 nM
15,"O=C(O)[C@H](CCN(CCCCc1ccc2c(n1)NCCC2)CCOCC(F)(F)F)Nc1ncnc2cccnc12 [Compound 51, (S)-2-(pyrido[3,2-d]pyrimidin-4-ylamino)-4-((4-(5,6,7,8-tetrahydro-1,8-naphthyridin-2-yl)butyl) (2-(2,2,2-trifluoroethoxy)ethyl)amino) butanoic Acid]",< 50 nM
16,"Cc1ncccc1OCCN(CCCCc1ccc2c(n1)NCCC2)CC[C@H](Nc1ncnc2ccccc12)C(=O)O [Compound 52, (S)-4-((2-((2-methylpyridin-3-yl)oxy)ethyl) (4-(5,6,7,8-tetrahydro-1,8-naphthyridin-2-yl)butyl)amino)-2-(quinazolin-4-ylamino) butanoic Acid]",< 50 nM

# Further lines, results first:
row,IC50,SMILES
1,< 50 nM,"O=C(O)[C@H](CCN(CCCCc1ccc2c(n1)NCCC2)CCOc1ccccc1)Nc1ncnc2ccccc12 [Compound 28, (S)-4-((2-phenoxyethyl) (4-(5,6,7,8-tetrahydro-1,8-naphthyridin-2-yl)butyl)amino)-2-(quinazolin-4-ylamino) butanoic Acid]"
2,< 50 nM,"O=C(O)[C@H](CCN(CCCCc1ccc2c(n1)NCCC2)CCC(F)F)Nc1ncnc2ccccc12 [Compound 29, (S)-4-((3,3-difluoropropyl) (4-(5,6,7,8-tetrahydro-1,8-naphthyridin-2-yl)butyl)amino)-2-(quinazolin-4-ylamino) butanoic Acid]"
3,< 50 nM,"O=C(O)[C@H](CCN(CCCF)CCCCc1ccc2c(n1)NCCC2)Nc1ncnc2ccccc12 [Compound 30, (S)-4-((3-fluoropropyl) (4-(5,6,7,8-tetrahydro-1,8-naphthyridin-2-yl)butyl)amino)-2-(quinazolin-4-ylamino) butanoic Acid]"
4,< 50 nM,"COC[C@@H](F)CN(CCCCc1ccc2c(n1)NCCC2)CC[C@H](Nc1ncnc2ccccc12)C(=O)O [Compound 31, (S)-4-(((S)-2-fluoro-3-methoxypropyl) (4-(5,6,7,8-tetrahydro-1,8-naphthyridin-2-yl)butyl)amino)-2-(quinazolin-4-ylamino) butanoic Acid]"
5,< 50 nM,"COC[C@@H](F)CN(CCCCc1ccc2c(n1)NCCC2)CC[C@H](Nc1nc(C)nc2cc(F)ccc12)C(=O)O [Compound 32, (S)-2-((7-fluoro-2-methylquinazolin-4-yl)amino)-4-(((S)-2-fluoro-3-methoxypropyl) (4-(5,6,7,8-tetrahydro-1,8-naphthyridin-2-yl)butyl)amino) butanoic Acid]"
6,< 50 nM,"Cc1nc(N[C@@H](CCN(CCCCc2ccc3c(n2)NCCC3)CC2CC(F)(F)C2)C(=O)O)c2ccc(F)cc2n1 [Compound 33, (S)-4-(((3,3-difluorocyclobutyl)methyl) (4-(5,6,7,8-tetrahydro-1,8-naphthyridin-2-yl)butyl)amino)-2-((7-fluoro-2-methylquinazolin-4-yl)amino) butanoic Acid]"
7,< 50 nM,"O=C(O)[C@H](CCN(CCCCc1ccc2c(n1)NCCC2)CCOC(F)F)Nc1ncnc2ccccc12 [Compound 35, (S)-4-((2-(difluoromethoxy)ethyl) (4-(5,6,7,8-tetrahydro-1,8-naphthyridin-2-yl)butyl)amino)-2-(quinazolin-4-ylamino) butanoic Acid]"
8,< 50 nM,"COCCN(CCCCc1ccc2c(n1)NCCC2)CC[C@H](Nc1ncnc2c(Cl)cccc12)C(=O)O [Compound 38, (S)-2-((8-chloroquinazolin-4-yl)amino)-4-((2-methoxyethyl) (4-(5,6,7,8-tetrahydro-1,8-naphthyridin-2-yl)butyl)amino) butanoic Acid]"
9,< 50 nM,"O=C(O)[C@H](CCN(CCCCc1ccc2c(n1)NCCC2)CCOCC(F)(F)F)Nc1ncnc2ccccc12 [Compound 39, (S)-2-(quinazolin-4-ylamino)-4-((4-(5,6,7,8-tetrahydro-1,8-naphthyridin-2-yl)butyl) (2-(2,2,2-trifluoroethoxy)ethyl)amino) butanoic Acid]"
